{"source": "patent US20130089869A1", "about": "“Methods For and Uses of Mechanical Stiffness Profiling of Cancer Cells” (DUKE UNIVERSITY, priority 2011, published 2013)", "format_in_all_cases": "cell-based, Human", "key": {"IGROV [1]": {"system": "IGROV", "experiment": "Magnetic tweezers assay (3DFM) of cell stiffness, IGROV cells", "conditions": "blebbistatin 100 μm added 30 mins before beads, vs untreated", "procedure": "(§1) The Three Dimensional Force Microscope (3DFM)^11 was used for applying controlled and precise 60-100 pN local force (FIG. 6) on 2.8 micron magnetic beads (DYNAL Biotech, Oslo, Norway) coated with fibronectin (Sigma Aldrich, St. Louis, Mo.). Briefly, cells were plated on coverslips followed by addition of the beads. Cells and beads were incubated for 30 minutes followed by force application and resultant bead displacements were recorded and analyzed. The displacement of the beads was recorded with high-speed video camera (Pulnix, JAI, Ca) and tracked using Video Spot Tracker (http://cismm.cs.unc.edu). The mean creep compliance was calculated from the tracked displacements as described. Spring constants were derived by fitting the compliance curves to a Jeffrey's model for viscoelastic liquids (FIG. 6). […]\n(§2) To further examine the relationship between cancer cell deformability and invasive potential, the effective shear modulus (here on referred to as the stiffness, k), of the cell was calculated by fitting a modified Kelvin Voigt model^12 to the compliance using a least squares fit (see FIG. 6). […] In addition, the variability in stiffness correlates directly with a specific measure of metastatic progression as determined using in vitro three-dimensional invasion assays."}, "IGROV [2]": {"system": "IGROV", "experiment": "Viability of IGROV cells under blebbistatin", "conditions": "concentration that disrupted cortical pMLC localization"}, "Ovca429TβRIII cells [3]": {"system": "Ovca429TβRIII cells", "experiment": "Matrigel invasion assay, Ovca429TβRIII cells", "conditions": "Ovca429TβRIII cells treated with blebbistatin, vs untreated", "procedure": "(§3) Cancer cells were seeded at a cell density of 25,000-70,000 on either Matrigel coated or uncoated filters and allowed to invade for 18-24 hours towards 10% FBS in the lower chamber. Cells invading and migrating through the Matrigel layer were visualized and counted as described^9. Percent cell migration or invasion was determined as the fraction of total cells that invaded through the filter. Blebbistatin (100 μM)^10 where used, was added to the top chamber of the transwell and migration and invasion allowed to proceed. Each assay was set up in duplicate, and each experiment was conducted at least 3 times with 4 random fields from a 10× magnification analyzed for each membrane."}, "IGROV [4]": {"system": "IGROV", "experiment": "Transwell migration assay, IGROV cells", "conditions": "blebbistatin 100 μM in top chamber, vs untreated", "procedure": "as §3"}, "Ovca429TβRIII cells [5]": {"system": "Ovca429TβRIII cells", "experiment": "Magnetic tweezers assay (3DFM) of cell stiffness, Ovca429TβRIII cells", "conditions": "Ovca429TβRIII cells treated with blebbistatin", "procedure": "as §1, §2"}, "IGROV [6]": {"system": "IGROV", "experiment": "Immunofluorescence of cortical pMLC localization, IGROV cells", "conditions": "blebbistatin", "procedure": "Immunoflourescence was performed essentially as described previously^9 and images were obtained using a Nikon inverted microscope."}, "IGROV [7]": {"system": "IGROV", "experiment": "Matrigel invasion assay, IGROV cells", "conditions": "blebbistatin 100 μM in top chamber, 18-24 hours, vs untreated", "procedure": "as §3"}}}
{"smiles": "Cc1ccc2c(c1)C(=O)C1(O)CCN(c3ccccc3)C1=N2", "note": "(centres unmarked) [Blebbistatin]", "values": [{"measurement": "decrease of cell stiffness", "setting": "IGROV [1]", "value": 2, "unit": "fold"}, {"measurement": "effect on viability", "setting": "IGROV [2]", "value": "did not affect viability"}, {"measurement": "increase of invasiveness", "setting": "Ovca429TβRIII cells [3]", "value": "four fold"}, {"measurement": "increase of cell migration", "setting": "IGROV [4]", "value": 4, "unit": "fold"}, {"measurement": "stiffness K (spring constant)", "setting": "Ovca429TβRIII cells [5]", "value": 1.48, "unit": "Pa"}, {"measurement": "decrease of stiffness", "setting": "Ovca429TβRIII cells [5]; vs untreated", "value": "two fold"}, {"measurement": "cortical pMLC localization", "setting": "IGROV [6]", "value": "disrupted cortical pMLC localization"}, {"measurement": "increase of cell invasion", "setting": "IGROV [7]", "value": 2.5, "unit": "fold"}]}
